From PMC12649549, “Sequence Permutation Generated Lysine and Tryptophan-Rich Antimicrobial Peptides with Enhanced Therapeutic Index” (Antibiotics, 2025)
Read-outs that look alike come from different tables or passages of the source.

Tests used:
Gram-negative bacteria = assay: Geometric mean MIC and therapeutic index, Gram-negative bacteria; format: cell-based; details: Gram-negative bacteria; for GM G− (geometric mean of the MIC values): MH broth, MIC >50 µg/mL counted as 100 µg/mL; for Therapeutic Index (TI) G−: HC10/GM
Experimental: (§1) In this study, we aimed to investigate the potential of W5K series peptides for therapeutic use. To evaluate their efficacy for antibacterial therapy, we used the Therapeutic Index (TI) as a measure of their cell selectivity. The TI was calculated as the ratio of the concentration causing 10% hemolysis of human red blood cells (HC10) to the geometric mean minimum inhibitory concentration (GM) of the peptides against both Gram-negative and Gram-positive bacteria. This parameter was used to quantitatively assess the balance between antibacterial potency and cytotoxicity among the W5K derivatives.
(§2) The antibacterial activities of the peptides in Müller-Hinton (MH) broth and modified LYM broth were determined using the standard broth microdilution method as per Clinical and Laboratory Standards Institute (CLSI) guidelines. The LYM broth was prepared with specific components and adjusted to different conditions, including varying concentrations of NaCl and MgCl2, and different pH levels. To prepare the LYM broth, 5.4 mM KCl, 5.6 mM Na2HPO4, 0.5 mM MgSO4, and 1.0 mM sodium citrate were added. Additionally, 0.4 mg of ZnCl2, 2.0 mg of FeCl3·6H2O, 0.1 mg of CuSO4·5H2O, 0.1 mg of MnSO4·H2O, 0.1 mg of Na2B4O7∙10H2O, 700 mg of amino acid mixtures without tryptophan (Takara Bio Inc., San Jose, CA, USA), and 20 mg of L-tryptophan were added per liter of medium. The pH was adjusted to 7.4, and a vitamin mixture (100X, Sigma) and glucose concentration of 2% were added. For different conditions of LYM broth, NaCl concentrations of 300, 200, 150, and 50 mM, MgCl2 concentrations of 2.5, 1.5, and 0.5 mM, and pH levels of 6.5, 5.5, and 4.5 were adjusted. Bacterial strains were incubated in MH broth overnight, regrown, and diluted to a final concentration of 5 × 10^5 CFU/mL. Peptides were added to each well at final concentrations of 50, 25, 12.5, 6.25, 3.13, 1.56, and 0.78 µg/mL, and 99 µL of diluted microbes was loaded into each well of a polypropylene 96-well plate. […] The Morpheus HeatMap software (https://software.broadinstitute.org/morpheus/) was used to display MIC values on a color scale. All experiments were independently repeated three times.

S. aureus ATCC 33592 = tested on: S. aureus ATCC 33592
Experimental: (§3) The antibacterial and salt-resistant activity of the peptides was tested using Escherichia coli (ATCC 25922), Pseudomonas aeruginosa Migula (ATCC 27853), Acinetobacter sp. (BCRC number 14B0091, BCRC number 14B0097, and BCRC number 14B0100), and Staphylococcus aureus sp. strains (ATCC 25923, ATCC 33591, ATCC 33592, ATCC 33593, and ATCC 6538). All bacteria were obtained from the Food Industry Research and Development Institute (Hsinchu, Taiwan) and cultured in sterilized Müller-Hinton (MH) broth at 37 °C and 200 rpm for 8 h. The inoculum concentrations were determined by measuring the optical density at 600 nm (OD 600 = 1, approximately 10^8 CFU/mL) using an Ultrospec 2100 pro UV-Visible spectrophotometer (Biochrom Ltd., Cambridge, UK) after 8 h of culture.
as §2, with “For different conditions of LYM broth, NaCl concentrations of 300, 200, 150, and 50 mM, MgCl2 concentrations of 2.5, 1.5, and 0.5 mM, and pH levels of 6.5, 5.5, and 4.5 were adjusted.” left out

Gram-positive bacteria = assay: Geometric mean MIC and therapeutic index, Gram-positive bacteria; format: cell-based; details: Gram-positive bacteria; for GM G+ (geometric mean of the MIC values): MH broth, MIC >50 µg/mL counted as 100 µg/mL; for Therapeutic Index (TI) G+: HC10/GM
Experimental: as §1, §2

[1] = tested on: A. baumannii 14B0097 (Acinetobacter sp., BCRC number 14B0097)
Experimental: as §3, §2

S. aureus ATCC 6538 = tested on: S. aureus ATCC 6538
Experimental: as §3, §2

[2] = LYM broth, 0 mM NaCl, 16 h, 37 °C
[3] = LYM broth, 50 mM NaCl, 16 h, 37 °C
[4] = LYM broth, 100 mM NaCl, 16 h, 37 °C
[5] = LYM broth, 200 mM (NaCl), 16 h, 37 °C
[6] = LYM broth, 300 mM (NaCl), 16 h, 37 °C
[7] = MH broth, 5 × 10^5 CFU/mL, 16 h, 37 °C, repeated three times

Substance	GM G− (geometric mean of the MIC values) (Gram-negative bacteria)	Therapeutic Index (TI) G− (Gram-negative bacteria)	MIC (S. aureus ATCC 33592; [2])	MIC (S. aureus ATCC 33592; LYM broth, 0.5 mM MgCl2)	MIC (S. aureus ATCC 33592; LYM broth, 1.5 mM MgCl2)	MIC (S. aureus ATCC 33592; LYM broth, 2.5 mM MgCl2)	MIC (S. aureus ATCC 33592; [3])	MIC (S. aureus ATCC 33592; [4])	MIC (S. aureus ATCC 33592; [5])	MIC (S. aureus ATCC 33592; [6])	MIC (S. aureus ATCC 33592; LYM broth, pH 4.5)	MIC (S. aureus ATCC 33592; LYM broth, pH 5.5)	MIC (S. aureus ATCC 33592; LYM broth, pH 6.5)	MIC (S. aureus ATCC 33592; [7])	GM G+ (geometric mean of the MIC values) (Gram-positive bacteria)	Therapeutic Index (TI) G+ (Gram-positive bacteria)	MIC [1, 2]	MIC ([1]; LYM broth, 0.5 mM MgCl2)	MIC ([1]; LYM broth, 1.5 mM MgCl2)	MIC ([1]; LYM broth, 2.5 mM MgCl2)	other results
Ac-KKKWRKWLKWLAK-NH2 [Peptide W5K12]	2.4 µg/mL	17.6	3.13 µg/mL	3.13 µg/mL	3.13 µg/mL	3.13 µg/mL	3.13 µg/mL	3.13 µg/mL	6.25 µg/mL	12.5 µg/mL	3.13 µg/mL	3.13 µg/mL	1.56 µg/mL	6.25 µg/mL	4.7 µg/mL	8.8	1.56 µg/mL	1.56 µg/mL	1.56 µg/mL	3.13 µg/mL	MIC [1, 3]: 1.56 µg/mL; MIC [1, 4]: 1.56 µg/mL; MIC [1, 5]: 1.56 µg/mL; MIC [1, 6]: 3.13 µg/mL; MIC ([1]; LYM broth, pH 4.5): 3.13 µg/mL; MIC ([1]; LYM broth, pH 5.5): 3.13 µg/mL; MIC ([1]; LYM broth, pH 6.5): 1.56 µg/mL; MIC [1, 7]: 1.56 µg/mL; MIC (S. aureus ATCC 6538; [2]): 1.56 µg/mL; MIC (S. aureus ATCC 6538; LYM broth, 0.5 mM MgCl2): 1.56 µg/mL; MIC (S. aureus ATCC 6538; LYM broth, 1.5 mM MgCl2): 1.56 µg/mL; MIC (S. aureus ATCC 6538; LYM broth, 2.5 mM MgCl2): 1.56 µg/mL; MIC (S. aureus ATCC 6538; [3]): 1.56 µg/mL; MIC (S. aureus ATCC 6538; [4]): 3.13 µg/mL; MIC (S. aureus ATCC 6538; [5]): 6.25 µg/mL; MIC (S. aureus ATCC 6538; [6]): 12.5 µg/mL; MIC (S. aureus ATCC 6538; LYM broth, pH 4.5): 3.13 µg/mL; MIC (S. aureus ATCC 6538; LYM broth, pH 5.5): 1.56 µg/mL; MIC (S. aureus ATCC 6538; LYM broth, pH 6.5): 1.56 µg/mL; MIC (S. aureus ATCC 6538; [7]): 3.13 µg/mL
Ac-KWLKWLAKKKKWR-NH2 [Peptide W5K04]	18.9 µg/mL	5.7	25 µg/mL	25 µg/mL	25 µg/mL	25 µg/mL	25 µg/mL	50 µg/mL	>50 µg/mL	>50 µg/mL	25 µg/mL	25 µg/mL	12.5 µg/mL	>50 µg/mL	66.0 µg/mL	1.6	1.56 µg/mL	1.56 µg/mL	3.13 µg/mL	3.13 µg/mL	MIC [1, 3]: 3.13 µg/mL; MIC [1, 4]: 3.13 µg/mL; MIC [1, 5]: 12.5 µg/mL; MIC [1, 6]: 50 µg/mL; MIC ([1]; LYM broth, pH 4.5): 3.13 µg/mL; MIC ([1]; LYM broth, pH 5.5): 1.56 µg/mL; MIC ([1]; LYM broth, pH 6.5): 1.56 µg/mL; MIC [1, 7]: 12.5 µg/mL; MIC (S. aureus ATCC 6538; [2]): 3.13 µg/mL; MIC (S. aureus ATCC 6538; LYM broth, 0.5 mM MgCl2): 3.13 µg/mL; MIC (S. aureus ATCC 6538; LYM broth, 1.5 mM MgCl2): 6.25 µg/mL; MIC (S. aureus ATCC 6538; LYM broth, 2.5 mM MgCl2): 6.25 µg/mL; MIC (S. aureus ATCC 6538; [3]): 6.25 µg/mL; MIC (S. aureus ATCC 6538; [4]): 25 µg/mL; MIC (S. aureus ATCC 6538; [5]): 50 µg/mL; MIC (S. aureus ATCC 6538; [6]): >50 µg/mL; MIC (S. aureus ATCC 6538; LYM broth, pH 4.5): 6.25 µg/mL; MIC (S. aureus ATCC 6538; LYM broth, pH 5.5): 6.25 µg/mL; MIC (S. aureus ATCC 6538; LYM broth, pH 6.5): 3.13 µg/mL; MIC (S. aureus ATCC 6538; [7]): 25 µg/mL
Ac-KWRKWLKWLAKKK-NH2 [Peptide W5K01]	8.2 µg/mL	8.6	6.25 µg/mL	6.25 µg/mL	6.25 µg/mL	12.5 µg/mL	6.25 µg/mL	12.5 µg/mL	25 µg/mL	50 µg/mL	6.25 µg/mL	6.25 µg/mL	6.25 µg/mL	50 µg/mL	28.7 µg/mL	2.5	1.56 µg/mL	1.56 µg/mL	3.13 µg/mL	3.13 µg/mL	MIC [1, 3]: 1.56 µg/mL; MIC [1, 4]: 3.13 µg/mL; MIC [1, 5]: 3.13 µg/mL; MIC [1, 6]: 12.5 µg/mL; MIC ([1]; LYM broth, pH 4.5): 3.13 µg/mL; MIC ([1]; LYM broth, pH 5.5): 3.13 µg/mL; MIC ([1]; LYM broth, pH 6.5): 1.56 µg/mL; MIC [1, 7]: 6.25 µg/mL; MIC (S. aureus ATCC 6538; [2]): 3.13 µg/mL; MIC (S. aureus ATCC 6538; LYM broth, 0.5 mM MgCl2): 1.56 µg/mL; MIC (S. aureus ATCC 6538; LYM broth, 1.5 mM MgCl2): 1.56 µg/mL; MIC (S. aureus ATCC 6538; LYM broth, 2.5 mM MgCl2): 3.13 µg/mL; MIC (S. aureus ATCC 6538; [3]): 6.25 µg/mL; MIC (S. aureus ATCC 6538; [4]): 12.5 µg/mL; MIC (S. aureus ATCC 6538; [5]): 12.5 µg/mL; MIC (S. aureus ATCC 6538; [6]): 25 µg/mL; MIC (S. aureus ATCC 6538; LYM broth, pH 4.5): 3.13 µg/mL; MIC (S. aureus ATCC 6538; LYM broth, pH 5.5): 1.56 µg/mL; MIC (S. aureus ATCC 6538; LYM broth, pH 6.5): 1.56 µg/mL; MIC (S. aureus ATCC 6538; [7]): 12.5 µg/mL
Ac-WLAKKKKWRKWLK-NH2 [Peptide W5K08]	50.0 µg/mL	2.2	25 µg/mL	25 µg/mL	25 µg/mL	50 µg/mL	50 µg/mL	50 µg/mL	>50 µg/mL	>50 µg/mL	25 µg/mL	25 µg/mL	12.5 µg/mL	>50 µg/mL	75.8 µg/mL	1.4	3.13 µg/mL	3.13 µg/mL	3.13 µg/mL	6.25 µg/mL	MIC [1, 3]: 6.25 µg/mL; MIC [1, 4]: 12.5 µg/mL; MIC [1, 5]: 50 µg/mL; MIC [1, 6]: >50 µg/mL; MIC ([1]; LYM broth, pH 4.5): 6.25 µg/mL; MIC ([1]; LYM broth, pH 5.5): 3.13 µg/mL; MIC ([1]; LYM broth, pH 6.5): 3.13 µg/mL; MIC [1, 7]: 25 µg/mL; MIC (S. aureus ATCC 6538; [2]): 12.5 µg/mL; MIC (S. aureus ATCC 6538; LYM broth, 0.5 mM MgCl2): 3.13 µg/mL; MIC (S. aureus ATCC 6538; LYM broth, 1.5 mM MgCl2): 6.25 µg/mL; MIC (S. aureus ATCC 6538; LYM broth, 2.5 mM MgCl2): 6.25 µg/mL; MIC (S. aureus ATCC 6538; [3]): 25 µg/mL; MIC (S. aureus ATCC 6538; [4]): 50 µg/mL; MIC (S. aureus ATCC 6538; [5]): 50 µg/mL; MIC (S. aureus ATCC 6538; [6]): >50 µg/mL; MIC (S. aureus ATCC 6538; LYM broth, pH 4.5): 12.5 µg/mL; MIC (S. aureus ATCC 6538; LYM broth, pH 5.5): 6.25 µg/mL; MIC (S. aureus ATCC 6538; LYM broth, pH 6.5): 6.25 µg/mL; MIC (S. aureus ATCC 6538; [7]): >50 µg/mL
